Experimental data published in patent US6528543B1, “Urea derivatives” (Hoffman-La Roche Inc., priority 1999, dated 2003).

Row | SMILES | melting point
1 | CC(O)CNC(=O)NC(=O)C(CC1CCCC1)c1ccc(Cl)c(Cl)c1 (stereo not shown) [Example 19, 1-[3-cyclopentyl-2-(3,4-dichloro-phenyl)-propionyl]-3-(2-hydroxy-propyl)-urea] | 116.7 to 119.9 °C
2 | CNC(=O)NC(=O)C(CC1CCCC1)c1ccc(F)c(F)c1 (stereo not shown) [Example 3, 1-[3-cyclopentyl-2-(3,4-difluoro-phenyl)-propionyl]-3-methyl-urea] | 111 to 113 °C
3 | CNC(=O)NC(=O)C(CC1CCCC1)c1ccc(S(=O)(=O)C(F)(F)F)cc1 (stereo not shown) [Example 9, 1-[3-cyclopentyl-2-(4-trifluoromethanesulfonyl-phenyl)-propionyl]-3-methyl urea] | 191 to 192 °C
4 | CNC(=O)NC(=O)C(CC1CCCC1)c1ccc(S(C)(=O)=O)c(Br)c1 (stereo not shown) [Example 35, 1-[2-(3-bromo-4-methanesulfonyl-phenyl)-3-cyclopentyl-propionyl]-3-methyl-urea] | 259 to 260 °C
5 | CCS(=O)(=O)c1ccc(C(CC2CCCC2)C(=O)NC(=O)NC)cc1 (stereo not shown) [Example 33, 1-[3-cyclopentyl-2-(4-ethanesulfonyl-phenyl)-propionyl]-3-methyl-urea] | 200 to 201 °C
6 | CNC(=O)NC(=O)C(CC1CCCC1)c1ccc(S(C)(=O)=O)c([N+](=O)[O-])c1 (stereo not shown) [Example 14, 1-[3-cyclopentyl-2-(4-methanesulfonyl-3-nitrophenyl)-propionyl]-3-methyl-urea] | 241 to 242 °C
7 | CNC(=O)NC(=O)C(CC1CCCC1)c1ccc(C(F)(F)F)c(F)c1 (stereo not shown) [Example 32, 1-[3-cyclopentyl-2-(3-fluoro-4-trifluoromethyl-phenyl)-propionyl]-3-methyl-urea] | 187 to 189 °C
8 | CNC(=O)NC(=O)C(CC1CCCC1)c1cccc(S(=O)(=O)C(F)(F)F)c1 (stereo not shown) [Example 31, 1-[3-cyclopentyl-2-(3-trifluoromethanesulfonyl-phenyl)-propionyl]-3-methyl-urea] | 59 to 62 °C
9 | CNC(=O)NC(=O)C(CC1CCCC1)c1ccc(S(C)(=O)=O)c(S(C)(=O)=O)c1 (stereo not shown) [Example 37, 1-[2-(3,4-bis-methanesulfonyl-phenyl)-3-cyclopentyl-propionyl]-3-methyl-urea] | 220 to 222 °C
10 | CNC(=O)NC(=O)C(CC1CCCC1)c1ccc(Br)cc1 (stereo not shown) [Example 7, 1-[2-(4-bromo-phenyl)-3-cyclopentyl-propionyl]-3-methyl urea] | 184 to 186 °C
11 | CC(C)CC(C(=O)NC(N)=O)c1ccc(Cl)cc1 (stereo not shown) [Example 16, [2-(4-chloro-phenyl)-4-methyl-pentanoyl]-urea] | 164 to 165 °C
12 | CCCCS(=O)(=O)c1ccc(C(CC2CCCC2)C(=O)NC(=O)NC)cc1 (stereo not shown) [Example 39, 1-{2-[4-(butane-1-sulfonyl)-phenyl]-3-cyclopentyl-propionyl}-3-methyl-urea] | 189 to 191 °C
13 | CNC(=O)NC(=O)C(CC1CCCC1)c1ccccc1 (stereo not shown) [Example 6, 1-(3-cyclopentyl-2-phenyl-propionyl)-3-methyl-urea] | 145 to 147 °C
14 | CNC(=O)NC(=O)C(CC1CCCC1)c1ccc(SC(F)(F)F)cc1 (stereo not shown) [Example 8, 1-[3-cyclopentyl-2-(4-trifluoromethylsulfanyl-phenyl)-propionyl]-3-methyl urea] | 144 to 145 °C
15 | CNC(=O)NC(=O)C(CC1CCCC1)c1ccc(S(C)(=O)=O)c(C(F)(F)F)c1 (stereo not shown) [Example 40, 1-[3-cyclopentyl-2-(4-methanesulfonyl-3-trifluoromethyl-phenyl)-propionyl]-3-methyl-urea] | 268 to 270 °C
16 | CNC(=O)NC(=O)[C@H](CC1CCCC1)c1ccc(Cl)c(Cl)c1 [Example 13, 1-[3-cyclopentyl-2(R)-(3,4-dichloro-phenyl)-propionyl]-3-methyl-urea] | 124.8 to 127.5 °C
17 | NC(=O)NC(=O)C(CC1CCCCC1)c1ccc(Cl)c(Cl)c1 (stereo not shown) [Example 1] | 76 to 79 °C
18 | CNC(=O)NC(=O)C(CC1CCCC1)c1ccc(C#N)cc1 (stereo not shown) [Example 43, 1-[2-(4-cyano-phenyl)-3-cyclopentyl-propionyl]-3-methyl-urea] | 61 to 65 °C
19 | CNC(=O)NC(=O)C(CC1CCCC1)c1ccc(SC)cc1 (stereo not shown) [Example 10, 1-[3-cyclopentyl-2-(4-methylsulfanyl-phenyl)-propionyl]-3-methyl urea] | 185 to 186 °C
20 | CNC(=O)NC(=O)C(CC1CCCC1)c1ccc([N+](=O)[O-])cc1 (stereo not shown) [Example 5, 1-[3-cyclopentyl-2-(4-nitro-phenyl)-propionyl]-3-methyl-urea] | 179 to 183 °C
21 | CC(C)C[C@@H](C(=O)NC(N)=O)c1ccc(Cl)c(Cl)c1 [Example 17, R-[2-(3,4-dichloro-phenyl)-4-methyl-pentanoyl]-urea] | 138 to 140 °C
22 | CNC(=O)NC(=O)C(CC1CCCC1)c1ccc(S(C)(=O)=O)cc1 (stereo not shown) [Example 11, 1-[3-cyclopentyl-2-(4-methanesulfonyl-phenyl)-propionyl]-3-methyl urea] | 205 to 206 °C
23 | CNC(=O)NC(=O)C(CC1CCCC1)c1cccc(Cl)c1 (stereo not shown) [Example 2, 1-[2-(3-chloro-phenyl)-3-cyclopentyl-propionyl]-3-methyl-urea] | 52 to 55 °C
24 | CNC(=O)NC(=O)C(CC1CCCC1)c1ccc(Cl)cc1 (stereo not shown) [Example 4, 1-[2-(4-chloro-phenyl)-3-cyclopentyl-propionyl]-3-methyl-urea] | 145 to 147 °C
25 | COC(=O)CNC(=O)NC(=O)C(CC1CCCC1)c1ccc(Cl)c(Cl)c1 (stereo not shown) [Example 21, {3-[3-cyclopentyl-2-(3,4-dichloro-phenyl)-propionyl]-ureido}-acetic acid methyl ester] | 134.5 to 136.6 °C
26 | CNC(=O)NC(=O)C(CC1CCCC1)c1ccc(S(C)(=O)=O)c(C#N)c1 (stereo not shown) [Example 36, 1-[2-(3-cyano-4-methanesulfonyl-phenyl)-3-cyclopentyl-propionyl]-3-methyl-urea] | 237 to 239 °C
27 | CNC(=O)NC(=O)C(CC1CCCC1)c1ccc(Cl)c([N+](=O)[O-])c1 (stereo not shown) [Example 34, 1-[2-(4-chloro-3-nitro-phenyl)-3-cyclopentyl-propionyl]-3-methyl-urea] | 61 to 64 °C
28 | CNC(=O)NC(=O)C(CC1CCCC1)c1ccc(S(C)(=O)=O)c(F)c1 (stereo not shown) [Example 42, 1-[3-cyclopentyl-2-(3-fluoro4-methanesulfonyl-phenyl)-propionyl]-3-methyl-urea] | 199 to 200 °C
